Experimental data reported in patent US8748426B2, “Inhibitors of diacylglycerol acyl transferase” (Piramal Enterprises Limited, priority 2009, dated 2014).

Tests used:
[1] = system: Swiss mice; experiment: Fat tolerance test (ftt) in mice; type: in vivo; conditions: 3 mg/kg, p.o.; olive oil load 10 mL/kg 30 min after treatment; AUC0-4h, vehicle group as 100%
Experimental: Swiss mice of age 4-5 weeks and body weight between 25-30 g were selected for study. After fasting for about 16 h, the animals were divided into three groups based on plasma triglyceride level with same mean and variation. Animals were administered with either vehicle [(1% tween 80 in 0.5% carboxy methylcellulose (CMC)]) or with compounds of the present invention (3 mg/kg, p.o.). Compounds of the present invention were prepared as suspension in 0.5% carboxy methylcellulose (CMC) with 1% tween 80. Olive oil (fat) load (10 mL/kg, p.o.) was given, 30 min after the treatment. Blood samples were collected at 1, 2, 3 and 4 h after the fat (olive oil) load. Plasma was separated and triglyceride level was measured using commercially available kits (diasys, Germany). Percentage reduction in area under curve (AUC0-4h) of the test compound was calculated by taking AUC0-4h of the vehicle group as 100%.

[2] = molecular target: T1, hDGAT1 (Homo sapiens, UniProt O75907); experiment: In-vitro DGAT1 assay (14C oleoyl CoA, hDGAT1 microsomes from Sf9 cells); conditions: for % Inhibition of hDGAT1: at 1 μM; for inhibition at 1 µM: read-out: % Inhibition of hDGAT1
T1 sequence (O75907 1-488): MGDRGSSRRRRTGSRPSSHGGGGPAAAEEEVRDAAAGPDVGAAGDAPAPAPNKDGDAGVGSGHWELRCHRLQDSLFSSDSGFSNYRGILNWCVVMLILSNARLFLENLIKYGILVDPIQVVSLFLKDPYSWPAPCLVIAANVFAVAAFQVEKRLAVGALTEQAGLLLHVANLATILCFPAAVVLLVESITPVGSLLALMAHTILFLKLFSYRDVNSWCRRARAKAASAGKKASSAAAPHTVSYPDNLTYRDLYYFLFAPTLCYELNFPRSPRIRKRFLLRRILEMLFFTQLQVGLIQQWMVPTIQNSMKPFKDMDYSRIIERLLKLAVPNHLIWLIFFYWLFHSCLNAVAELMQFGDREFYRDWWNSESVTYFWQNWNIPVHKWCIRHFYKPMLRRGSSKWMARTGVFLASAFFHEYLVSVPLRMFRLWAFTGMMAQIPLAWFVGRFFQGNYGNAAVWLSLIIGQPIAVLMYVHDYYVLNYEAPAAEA

inhibition at 1 µM [2] [%] | SMILES | % Reduction (Plasma triglyceride) [1] | % Inhibition of hDGAT1 [2]
– | CC(C)[C@@H](C(=O)O)N1Cc2ccc(-c3ccc(NC(=O)c4ccc(-c5ccccc5)cc4)cn3)cc2C1=O [Example 408, (S)-2-(6-(5-Biphenyl-4-ylcarboxamidopyridin-2-yl)-1-oxoisoindolin-2-yl)-3-methylbutanoic acid] | ++ (>50% Reduction) | ++ (>50% Inhibition)
> 50 | CCCCCc1ccc(C(=O)Nc2ccc(-c3ccc4c(c3)C(=O)N([C@H](C(=O)O)C(C)C)C4)cc2)cc1 [Example 124, (S)-3-Methyl-2-(1-oxo-6-(4-(4-pentylbenzamido)phenyl)isoindolin-2-yl)butanoic acid] | ++ (>50% Reduction) | –
– | CC(C)[C@@H](C(=O)O)N1Cc2ccc(-c3ccc(NC(=O)c4ccc(-c5ccccc5)cc4)cc3)cc2C1=O [Example 120, (S)-2-(6-(4-Biphenyl-4-ylcarboxamidophenyl)-1-oxoisoindolin-2-yl)-3-methyl butanoic acid] | ++ (>50% Reduction) | ++ (>50% Inhibition)
> 50 | CCCc1ccc(C(=O)Nc2ccc(-c3ccc4c(c3)C(=O)N([C@H](C(=O)O)C(C)C)C4)cc2)cc1 [Example 170, (S)-3-Methyl-2-(1-oxo-6-(4-(4-propylbenzamido)phenyl)isoindolin-2-yl)butanoic acid] | ++ (>50% Reduction) | –
> 50 | CC(C)[C@@H](C(=O)O)N1Cc2ccc(-c3ccc(NC(=O)c4ccc5ccccc5c4)cn3)cc2C1=O [Example 410, (S)-2-(6-(5-(2-Naphthamido)pyridin-2-yl)-1-oxoisoindolin-2-yl)-3-methylbutanoic acid] | ++ (>50% Reduction) | –
> 50 | CC(C)[C@@H](C(=O)O)N1Cc2ccc(-c3ccc(NC(=O)c4cccc(Oc5ccccc5)c4)cc3)cc2C1=O [Example 148, (S)-3-Methyl-2-(1-oxo-6-(4-(3-phenoxybenzamido)phenyl)isoindolin-2-yl)butanoic acid] | ++ (>50% Reduction) | –
> 50 | CC(C)[C@@H](C(=O)O)N1Cc2ccc(-c3ccc(NC(=O)c4ccc(Oc5ccccc5)cc4)cc3)cc2C1=O [Example 150, (S)-3-Methyl-2-(1-oxo-6-(4-(4-phenoxybenzamido)phenyl)isoindolin-2-yl)butanoic acid] | ++ (>50% Reduction) | –
> 50 | CCCCCc1ccc(C(=O)Nc2ccc(-c3ccc4c(c3)C(=O)N([C@H](C(=O)O)C(C)C)C4)nc2)cc1 [Example 406, (S)-3-Methyl-2-(1-oxo-6-(5-(4-pentylbenzamido)pyridin-2-yl)isoindolin-2-yl)butanoic acid] | ++ (>50% Reduction) | –
> 50 | CC(C)[C@@H](C(=O)O)N1Cc2ccc(-c3ccc(NC(=O)c4ccc(C(C)(C)C)cc4)cc3)cc2C1=O [Example 116, (S)-2-(6-(4-(4-tert-Butylbenzamido)phenyl)-1-oxoisoindolin-2-yl)-3-methyl butanoic acid] | ++ (>50% Reduction) | –
– | COC[C@@H](C(=O)O)N1Cc2ccc(-c3ccc(NC(=O)Nc4cccc(C(F)(F)F)c4)cc3)cc2C1=O [Example 355] | – | + (10-50% Inhibition)
> 50 | CC(C)(C)c1ccc(C(=O)Nc2ccc(-c3ccc4c(c3)C(=O)N(C3(C(=O)O)CCCC3)C4)cc2)cc1 [Example 531, 1-(6-(4-(4-(tert-Butyl)benzamido)phenyl)-1-oxoisoindolin-2-yl)cyclopentane carboxylic acid] | – | –
> 50 | O=C(Nc1ccc(-c2ccc3c(c2)C(=O)N(C2(C(=O)O)CC2)C3)cc1)c1ccc(Cl)cc1 [Example 588, 1-(6-(4-(4-Chlorobenzamido)phenyl)-1-oxoisoindolin-2-yl)cyclopropane carboxylic acid] | – | –
10 to 50 | CC(C)[C@@H](C(=O)O)N1Cc2ccc(-c3ccc(NC(=O)c4ccc(F)cc4C(F)(F)F)cc3)cc2C1=O [Example 198, (S)-2-(6-(4-(4-Fluoro-2-(trifluoromethyl)benzamido)phenyl)-1-oxoisoindolin-2-yl)-3-methylbutanoic acid] | – | –
> 50 | CC(C)[C@@H](C(=O)O)N1Cc2ccc(-c3ccc(NC(=O)NC4CCCCC4)cc3)cc2C1=O [Example 34, (S)-2-(6-(4-(3-Cyclohexylureido)phenyl)-1-oxoisoindolin-2-yl)-3-methylbutanoic acid] | – | –
